The record followed here is article PMC7539012, “Hyperphosphorylated tau aggregation and cytotoxicity modulators screen identified prescription drugs linked to Alzheimer's disease and cognitive functions” (Scientific Reports, 2020).

Where a name gives a salt, the structure may show the parent alone.

The subject of one experiment is T1, 1N4R p-tau.
T1 construct: made in house; host or cells: E. coli (PIMAX system)
Description: p-tau aggregation modulator screen of 1280-compound library (ThS fluorescence net change over 16 h).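 For ThS net change: 30 µM compound with 6 µM p-tau over 16 h.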
Settings: not given
Also noted: key to PTAI>3SD: *: PTAI>3SD. In kind it is biochemical.
As for `CN(C)CCCN1c2ccccc2Sc2ccc(C(F)(F)F)cc21` [Triflupromazine hydrochloride], the ThS net change amounted to 280. `CN[C@H](CC(C)C)C(=O)N[C@H]1C(=O)N[C@@H](CC(N)=O)C(=O)N[C@H]2C(=O)N[C@H]3C(=O)N[C@H](C(=O)N[C@H](C(=O)O)c4cc(O)cc(O)c4-c4cc3ccc4O)[C@H](O)c3ccc(c(Cl)c3)Oc3cc2cc(c3O[C@@H]2O[C@H](CO)[C@@H](O)[C@H](O)[C@H]2O[C@H]2C[C@](C)(N)[C@H](O)[C@H](C)O2)Oc2ccc(cc2Cl)[C@H]1O` [Vancomycin hydrochloride] came in with a ThS net change of 408. For the compound `COc1ccc(CCN(C)CCCC(C#N)(c2ccc(OC)c(OC)c2)C(C)C)cc1OC` (centres unmarked) [Verapamil hydrochloride], the ThS net change was found to be 325.

The experiment is the same for the next values; noted with them: 1280-compound library screen; ThS fluorescence net change over 16 h.
`CSc1nc2cc(Cl)c(Oc3cccc(Cl)c3Cl)cc2[nH]1` [Triclabendazole] displayed a ThS net change of 382. The same measure, in the same setting: the result for `CC[N+](CC)(CC)CCC(O)(c1ccccc1)C1CCCCC1.[Cl-]` (centres unmarked) [Tridihexethyl chloride] reads 402. In turn, `COc1cc(C(=O)N2CCOCC2)cc(OC)c1OC` [Trimetozine] yielded a ThS net change of 404. `CC(CN(C)C)CN1c2ccccc2CCc2ccccc21.O=C(O)/C=C\C(=O)O` (centres unmarked) [Trimipramine maleate salt] displayed a ThS net change of 399.

`Cc1cc2cc3c(C)cc(=O)oc3c(C)c2o1` [Trioxsalen] showed a ThS net change of 390. Regarding `COc1cc(C(=O)NC2CCCNC2)cc(OC)c1OC` (centres unmarked) [Troxipide], the ThS net change was determined as 407. Same read-out and setting: the result for `CC(C)(C)NCC(O)c1ccccc1Cl` (centres unmarked) [Tulobuterol] reads 398. The compound `CC(C)C[C@H](NC(=O)[C@@H](O)[C@H](N)Cc1ccccc1)C(=O)O` [Ubenimex] gave a ThS net change of 390.

The compound `COc1ccccc1N1CCN(CCCNc2cc(=O)n(C)c(=O)n2C)CC1` [Urapidil hydrochloride] returned a ThS net change of 388. In turn, `CC(C)[C@H](N)C(=O)OCCOCn1cnc2c(=O)[nH]c(N)nc21` [Valacyclovir hydrochloride] came in with a ThS net change of 396. The compound `Cc1onc(-c2ccccc2)c1-c1ccc(S(N)(=O)=O)cc1` [Valdecoxib] showed a ThS net change of 393. The compound `CCCC(CCC)C(=O)O` [Valproic acid] gave a ThS net change of 403.

Consider `Nc1ncnc2c1ncn2[C@@H]1O[C@H](CO)[C@@H](O)[C@@H]1O` [Vidarabine], for which the ThS net change was found to be 401.

Staying with this experiment, now noted: 1280-compound library screen; […].
`Oc1cc(Cl)ccc1Oc1ccc(Cl)cc1Cl` [Triclosan] registered a ThS net change of 398. `CCC(COC(=O)c1cc(OC)c(OC)c(OC)c1)(c1ccccc1)N(C)C` (centres unmarked) [Trimebutine] displayed a ThS net change of 406. With `CC(=O)O[C@H]1C[C@@H]2CC[C@@H]3[C@H](CC[C@@]4(C)[C@H]3C[C@H]([N+]3(C)CCCCC3)[C@@H]4OC(C)=O)[C@@]2(C)C[C@@H]1N1CCCCC1` [Vecuronium bromide], the ThS net change was 382. The same measure, in the same setting: the value for `COc1ccc(C(CN(C)C)C2(O)CCCCC2)cc1` (centres unmarked) [Venlafaxine] was 404.

The experiment is the same for the next values; noted with them: flag: p-tau aggregation inhibitor, ThS net change more than 3 SD from mean.
In the case of `C=Cc1c(C)c2cc3nc(cc4[nH]c(cc5nc(cc1[nH]2)C(C)=C5CCC(=O)O)c(CCC(=O)OC)c4C)[C@@]1(C)C3=CC=C(C(=O)OC)C1C(=O)OC` (some centres unmarked) [Verteporfin], the “PTAI>3SD” value is on record as “*”.

The same experiment, now with this note: library screen, ThS fluorescence net change over 16 h with p-tau.
For the compound `C[C@]12C=CC(=O)C=C1CC[C@H]1[C@@H]3C[C@@H](O)[C@](O)(C(=O)CO)[C@@]3(C)C[C@H](O)[C@@]12F` [Triamcinolone], the ThS net change was found to be 259. For the compound `CN1CCN(CCCN2c3ccccc3Sc3ccc(C(F)(F)F)cc32)CC1` [Trifluoperazine dihydrochloride], the ThS net change came to 299.

With `COc1cc(C(=O)NCc2ccc(OCCN(C)C)cc2)cc(OC)c1OC` [Trimethobenzamide hydrochloride], the ThS net change came out at 322. The compound `C=Cc1c(C)c2cc3nc(cc4[nH]c(cc5nc(cc1[nH]2)C(C)=C5CCC(=O)O)c(CCC(=O)OC)c4C)[C@@]1(C)C3=CC=C(C(=O)OC)C1C(=O)OC` (some centres unmarked) [Verteporfin] came in with a ThS net change of -157.

Staying with this experiment, now noted: p-tau aggregation modulator screen of 1280-compound library; ThS fluorescence net change.
The compound `Nc1nc(N)c2nc(-c3ccccc3)c(N)nc2n1` [Triamterene] yielded a ThS net change of 354. `NS(=O)(=O)c1cc2c(cc1Cl)NC(C(Cl)Cl)NS2(=O)=O` (centres unmarked) [Trichlormethiazide]: the ThS net change is 375. Consider `CC(=O)Oc1cc(C(F)(F)F)ccc1C(=O)O` [Triflusal], for which the ThS net change was found to be 343. The compound `CC(CN(C)C)CN1c2ccccc2Sc2ccccc21.CC(CN(C)C)CN1c2ccccc2Sc2ccccc21.O=C(O)C(O)C(O)C(=O)O` (centres unmarked) [Trimeprazine tartrate] displayed a ThS net change of 354. Consider `CN1C(=O)OC(C)(C)C1=O` [Trimethadione], for which the ThS net change was 346. The same measure, in the same setting: the value for `COc1cc(Cc2cnc(N)nc2N)cc(OC)c1OC` [Trimethoprim] was 360; that for `Cc1ccc(/C(=C\CN2CCCC2)c2ccccn2)cc1.Cl` [Triprolidine hydrochloride] was 360; that for `CO[C@H]1C[C@H](O[C@H]2[C@H](C)[C@@H](O[C@@H]3O[C@H](C)C[C@H](N(C)C)[C@H]3OC(C)=O)[C@@H](C)C[C@@]3(CO3)C(=O)[C@H](C)[C@@H](OC(C)=O)[C@@H](C)[C@@H](C)OC(=O)[C@@H]2C)O[C@@H](C)[C@@H]1OC(C)=O` [Troleandomycin] was 357. The same measure, in the same setting: the result for `CC[C@H]1OC(=O)C[C@@H](O)[C@H](C)[C@@H](O[C@@H]2O[C@H](C)[C@@H](O[C@H]3C[C@@](C)(O)[C@@H](O)[C@H](C)O3)[C@H](N(C)C)[C@H]2O)[C@@H](CC=O)C[C@@H](C)C(=O)/C=C/C(C)=C/[C@@H]1CO[C@@H]1O[C@H](C)[C@@H](O)[C@@H](OC)[C@H]1OC` [Tylosin] reads 372. In turn, `Clc1ccc(Nc2nnc(Cc3ccncc3)c3ccccc23)cc1` [Vatalanib] came in with a ThS net change of 356. With `C=CC(N)CCC(=O)O` (centres unmarked) [Vigabatrin], the ThS net change came to 362. On to `CC[C@]12CCCN3CCc4c(n(c5ccccc45)[C@@](O)(C(=O)OC)C1)[C@@H]32` [Vincamine], for which the ThS net change is 348.

Staying with this experiment, now noted: p-tau aggregation modulator screen of 1280-compound library; […].
For `COP(=O)(OC)C(O)C(Cl)(Cl)Cl` (centres unmarked) [Trichlorfon], the ThS net change is listed as 340.

In turn, `COc1ccc(CN2CCNCC2)c(OC)c1OC` [Trimetazidine dihydrochloride] yielded a ThS net change of 365.

Staying with this experiment, now noted: p-tau aggregation modulator screen of the compound library, ThS fluorescence net change.
`CCOC1O[C@H]([C@@H](COCc2ccccc2)OCc2ccccc2)[C@H](OCc2ccccc2)[C@H]1O` (some centres unmarked) [Tribenoside]: the ThS net change was 690. Regarding `O=c1[nH]c(=O)n([C@H]2C[C@H](O)[C@@H](CO)O2)cc1C(F)(F)F` [Trifluridine], the ThS net change came to 463.

`CN(C)CCN(Cc1ccccc1)c1ccccn1` [Tripelennamine hydrochloride] had a ThS net change of 414. As for `Cc1c(C)c2c(c(C)c1O)CCC(C)(COc1ccc(CC3SC(=O)NC3=O)cc1)O2` (centres unmarked) [Troglitazone], the ThS net change was 451.

Consider `Cc1c(C)c2c(c(C)c1O)CCC(C)(C(=O)O)O2` (centres unmarked) [Trolox], for which the ThS net change came to 413. `C[C@H](CCC(=O)O)[C@H]1CC[C@H]2[C@@H]3[C@@H](O)C[C@@H]4C[C@H](O)CC[C@]4(C)[C@H]3CC[C@]12C` [Urosiol] had a ThS net change of 426.

On to `CCCCC(=O)N(Cc1ccc(-c2ccccc2-c2nnn[nH]2)cc1)[C@H](C(=O)O)C(C)C` [Valsartan], for which the ThS net change was found to be 417. In the case of `CCCc1nc(C)c2c(=O)[nH]c(-c3cc(S(=O)(=O)N4CCN(CC)CC4)ccc3OCC)nn12` [Vardenafil], the ThS net change was 414.
